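Test compounds were applied to cells in 96-well plates for 48 hours at 5 doses. At the GI50, growth is halved.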 Activity calls are given as the source filed them. Cut-off read from the data, not from the text of the source: active = GI50 up to about 1.1 µM and inactive = higher.
Experiments:
Assay in all cases: NCI anticancer screen, dose series, 48 h
[1] = tested on: HL-60
[2] = tested on: SK-MEL-2
[3] = tested on: BT-549
[4] = tested on: RPMI-8226
[5] = tested on: HCT-116
[6] = tested on: MDA-N
[7] = tested on: MDA-MB-435
[8] = tested on: TK-10
[9] = tested on: PC-3
[10] = tested on: NCI-H226
[11] = tested on: EKVX
[12] = tested on: CAKI-1
[13] = tested on: SN12C
[14] = tested on: MCF7
[15] = tested on: DU-145
[16] = tested on: A498
[17] = tested on: ACHN
[18] = tested on: OVCAR-5
[19] = tested on: UACC-62

SMILES | GI50 [1] | GI50 [2] | GI50 [3] | GI50 [4] | GI50 [5] | GI50 [6] | GI50 [7] | GI50 [8] | GI50 [9] | GI50 [10] | GI50 [11] | GI50 [12] | GI50 [13] | GI50 [14] | GI50 [15] | GI50 [16] | GI50 [17] | GI50 [18] | GI50 [19]
CC(NC(=O)OCc1ccccc1)NC(=O)OC(C)(C)C (stereo not drawn) | > 100 µM (inactive) | > 100 µM (inactive) | > 100 µM (inactive) | 51.6 µM (inactive) | > 100 µM (inactive) | > 100 µM (inactive) | > 100 µM (inactive) | > 100 µM (inactive) | > 100 µM (inactive) | > 100 µM (inactive) | > 100 µM (inactive) | > 100 µM (inactive) | > 100 µM (inactive) | > 100 µM (inactive) | > 100 µM (inactive) | > 100 µM (inactive) | > 100 µM (inactive) | > 100 µM (inactive) | > 100 µM (inactive)
C/C(=N\NC(=S)Nc1ccc([N+](=O)[O-])cc1)c1nc2cccnc2[nH]1 | 0.652 µM (active) | 1.31 µM (inactive) | 0.452 µM (active) | 1.87 µM (inactive) | 0.515 µM (active) | 1.78 µM (inactive) | 1.34 µM (inactive) | 0.327 µM (active) | 1.24 µM (inactive) | 0.504 µM (active) | 0.227 µM (active) | 1 µM (active) | 1.65 µM (inactive) | 0.611 µM (active) | 1.21 µM (inactive) | 2.67 µM (inactive) | 0.378 µM (active) | 1.08 µM (active) | 0.447 µM (active)
N#CC(C#N)=C1CCCCc2ccc([N+](=O)[O-])cc21 | 29 µM (inactive) | > 100 µM (inactive) | > 100 µM (inactive) | 31.2 µM (inactive) | 24.3 µM (inactive) | 51.6 µM (inactive) | > 100 µM (inactive) | > 100 µM (inactive) | 55.3 µM (inactive) | > 100 µM (inactive) | 46.6 µM (inactive) | 95.7 µM (inactive) | 52.6 µM (inactive) | 38.7 µM (inactive) | > 100 µM (inactive) | 78.3 µM (inactive) | 93.5 µM (inactive) | > 100 µM (inactive) | > 100 µM (inactive)
O=C1C([P+](c2ccccc2)(c2ccccc2)c2ccccc2)=C([O-])C(=Cc2ccc(Cl)c(Cl)c2)C([O-])=C1[P+](c1ccccc1)(c1ccccc1)c1ccccc1 | 0.735 µM (active) | 2.44 µM (inactive) | 2.27 µM (inactive) | 1.22 µM (inactive) | 1.68 µM (inactive) | 1.9 µM (inactive) | 2.3 µM (inactive) | 2.71 µM (inactive) | 1.71 µM (inactive) | 3.44 µM (inactive) | 2.47 µM (inactive) | 2.18 µM (inactive) | 2.43 µM (inactive) | 1.46 µM (inactive) | 7.67 µM (inactive) | 15.1 µM (inactive) | 2.8 µM (inactive) | 3.56 µM (inactive) | 2.23 µM (inactive)
O=C(O)c1ccc(C=C2Sc3ccccc3S2)cc1 | 35 µM (inactive) | 29.4 µM (inactive) | 62.7 µM (inactive) | 63.7 µM (inactive) | 48.1 µM (inactive) | 29 µM (inactive) | 21.1 µM (inactive) | 75.9 µM (inactive) | 50.7 µM (inactive) | > 100 µM (inactive) | 45 µM (inactive) | 45.3 µM (inactive) | 65.9 µM (inactive) | 35 µM (inactive) | > 100 µM (inactive) | 14.5 µM (inactive) | 22.6 µM (inactive) | 66.1 µM (inactive) | 26.2 µM (inactive)
C=C[C@]1(C)CC[C@]2(C)C(CC[C@@]3(C)C2C[C@H](O)[C@H](O)[C@@]3(C)O)C1 (stereo partly drawn) | > 100 µM (inactive) | > 100 µM (inactive) | > 100 µM (inactive) | > 100 µM (inactive) | > 100 µM (inactive) | > 100 µM (inactive) | > 100 µM (inactive) | > 100 µM (inactive) | > 100 µM (inactive) | > 100 µM (inactive) | > 100 µM (inactive) | > 100 µM (inactive) | > 100 µM (inactive) | > 100 µM (inactive) | > 100 µM (inactive) | > 100 µM (inactive) | > 100 µM (inactive) | > 100 µM (inactive) | > 100 µM (inactive)
CC1(C)C2CCC(CN)(C2)C1N (stereo not drawn) | > 100 µM (inactive) | > 100 µM (inactive) | > 100 µM (inactive) | > 100 µM (inactive) | > 100 µM (inactive) | > 100 µM (inactive) | > 100 µM (inactive) | > 100 µM (inactive) | > 100 µM (inactive) | > 100 µM (inactive) | > 100 µM (inactive) | > 100 µM (inactive) | > 100 µM (inactive) | > 100 µM (inactive) | > 100 µM (inactive) | > 100 µM (inactive) | > 100 µM (inactive) | > 100 µM (inactive) | > 100 µM (inactive)
C=CCN(c1cc(O)c2c(c(C)cn2S(=O)(=O)c2ccccc2)c1[N+](=O)[O-])S(C)(=O)=O | > 100 µM (inactive) | > 100 µM (inactive) | > 100 µM (inactive) | 61.2 µM (inactive) | 59.2 µM (inactive) | 36.9 µM (inactive) | 29.2 µM (inactive) | > 100 µM (inactive) | > 100 µM (inactive) | > 100 µM (inactive) | 76.9 µM (inactive) | > 100 µM (inactive) | 78.9 µM (inactive) | > 100 µM (inactive) | > 100 µM (inactive) | 74.1 µM (inactive) | 81.1 µM (inactive) | > 100 µM (inactive) | > 10 µM (inactive)
COc1cc(O)c(C(=O)/C=C/c2ccccc2)c(OC)c1 [FLAVOKAWAIN B] | 1.21 µM (inactive) | 4.62 µM (inactive) | 4.47 µM (inactive) | 3.85 µM (inactive) | 5.64 µM (inactive) | 3.78 µM (inactive) | 4.71 µM (inactive) | 6.55 µM (inactive) | 6.1 µM (inactive) | 4.15 µM (inactive) | 10.4 µM (inactive) | 5.28 µM (inactive) | 3.29 µM (inactive) | 7.8 µM (inactive) | 7.73 µM (inactive) | 4.43 µM (inactive) | 8.73 µM (inactive) | 23.9 µM (inactive) | 4.14 µM (inactive)
CCCCC(/C=C\COC1CCCCO1)=C/C(=O)OCC (stereo not drawn) | 29.2 µM (inactive) | > 100 µM (inactive) | > 100 µM (inactive) | 25.9 µM (inactive) | 28.6 µM (inactive) | 63.1 µM (inactive) | > 100 µM (inactive) | > 100 µM (inactive) | 44.9 µM (inactive) | > 100 µM (inactive) | 37 µM (inactive) | > 100 µM (inactive) | 57.4 µM (inactive) | 46.9 µM (inactive) | > 100 µM (inactive) | > 100 µM (inactive) | > 100 µM (inactive) | > 100 µM (inactive) | 55.7 µM (inactive)
Nc1cnc2c(c1)c(=O)nc1n2CCS1 | > 100 µM (inactive) | > 100 µM (inactive) | > 100 µM (inactive) | 74 µM (inactive) | > 100 µM (inactive) | > 100 µM (inactive) | > 100 µM (inactive) | > 100 µM (inactive) | > 100 µM (inactive) | > 100 µM (inactive) | 39.3 µM (inactive) | 72.4 µM (inactive) | > 100 µM (inactive) | > 100 µM (inactive) | > 100 µM (inactive) | > 100 µM (inactive) | > 100 µM (inactive) | > 100 µM (inactive) | > 100 µM (inactive)
COc1ccc(C(=O)C#Cc2cnc(OC)nc2OC)cc1 | 1.63 µM (inactive) | 1.42 µM (inactive) | 1.6 µM (inactive) | 1.93 µM (inactive) | 1.32 µM (inactive) | 1.58 µM (inactive) | 2.57 µM (inactive) | 1.67 µM (inactive) | 1.26 µM (inactive) | 1.47 µM (inactive) | 1.83 µM (inactive) | 1.19 µM (inactive) | 1.19 µM (inactive) | 0.778 µM (active) | 2.31 µM (inactive) | 18.7 µM (inactive) | 1.5 µM (inactive) | 1.64 µM (inactive) | 1.11 µM (active)
CCOC1OC(C)(C=C(C#N)C#N)CCC1C (stereo not drawn) | 26.9 µM (inactive) | > 100 µM (inactive) | 21.4 µM (inactive) | 21 µM (inactive) | 29.9 µM (inactive) | 47.2 µM (inactive) | 39.1 µM (inactive) | 59.6 µM (inactive) | 49 µM (inactive) | 23 µM (inactive) | 33.3 µM (inactive) | 33.2 µM (inactive) | 33.7 µM (inactive) | 35.2 µM (inactive) | 39.2 µM (inactive) | 22.4 µM (inactive) | 37.5 µM (inactive) | > 85.7 µM (inactive) | 38 µM (inactive)
O=C(CCCn1ccnc1[N+](=O)[O-])NCCn1cnc([N+](=O)[O-])n1 | > 100 µM (inactive) | > 100 µM (inactive) | > 100 µM (inactive) | > 100 µM (inactive) | > 100 µM (inactive) | > 100 µM (inactive) | > 100 µM (inactive) | > 100 µM (inactive) | > 100 µM (inactive) | > 100 µM (inactive) |  | > 100 µM (inactive) | > 100 µM (inactive) | > 100 µM (inactive) | > 100 µM (inactive) | > 100 µM (inactive) | > 100 µM (inactive) | > 100 µM (inactive) | > 100 µM (inactive)
CCOC(=O)c1nc2c3c(ncn2n1)Oc1c(c(-c2ccccc2)nn1-c1ccccc1)C3c1ccc(Cl)cc1 (stereo not drawn) | > 100 µM (inactive) | > 100 µM (inactive) | > 100 µM (inactive) | > 100 µM (inactive) | > 100 µM (inactive) | > 100 µM (inactive) | > 100 µM (inactive) | > 100 µM (inactive) | > 100 µM (inactive) | > 100 µM (inactive) |  | > 100 µM (inactive) | > 100 µM (inactive) | > 100 µM (inactive) | > 100 µM (inactive) | > 100 µM (inactive) | > 100 µM (inactive) | > 100 µM (inactive) | > 100 µM (inactive)
